Test results from PubChem BioAssay (NCI).
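A five-concentration, 48-hour dose response in 96-well plates underlies each endpoint, interpolated linearly between surrounding concentrations. GI50 is the concentration that inhibits growth by half. The concentration for full growth arrest is given as TGI.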

How the values were obtained:
Experiment in all cases: growth of human tumour cells (NCI), 48 h
HCT-116 colon = system: HCT-116 colon
K-562 leukemia = system: K-562 leukemia
LOX IMVI melanoma = system: LOX IMVI melanoma
MDA-MB-231 breast = system: MDA-MB-231 breast
MOLT-4 leukemia = system: MOLT-4 leukemia
NCI-H23 lung = system: NCI-H23 lung
OVCAR-5 ovarian = system: OVCAR-5 ovarian
SR leukemia = system: SR leukemia
U251 CNS = system: U251 CNS
UO-31 renal = system: UO-31 renal

Structure (SMILES)	GI50 (HCT-116 colon) [µM]	TGI (HCT-116 colon) [µM]	GI50 (K-562 leukemia) [µM]	TGI (K-562 leukemia) [µM]	GI50 (LOX IMVI melanoma) [µM]	TGI (LOX IMVI melanoma) [µM]	GI50 (MDA-MB-231 breast) [µM]	TGI (MDA-MB-231 breast) [µM]	GI50 (MOLT-4 leukemia) [µM]	TGI (MOLT-4 leukemia) [µM]	GI50 (NCI-H23 lung) [µM]	TGI (NCI-H23 lung) [µM]	GI50 (OVCAR-5 ovarian) [µM]	TGI (OVCAR-5 ovarian) [µM]	GI50 (SR leukemia) [µM]	TGI (SR leukemia) [µM]	GI50 (U251 CNS) [µM]	TGI (U251 CNS) [µM]	GI50 (UO-31 renal) [µM]	TGI (UO-31 renal) [µM]
CCn1cnc(C[C@H](NC(=O)[C@@H](NC(=O)Nc2cc(C(F)(F)F)cc(C(F)(F)F)c2)C(C)(C)C)C(=O)OC)c1	> 10	> 10	> 10	> 10	> 10	> 10	> 10	> 10	> 10	> 10	> 10	> 10	> 10	> 10	> 10	> 10	> 10	> 10	> 10	> 10
CCOC(=O)c1c(C)n(Cc2ccc(Cl)cc2Cl)c2c1cc(O)c1[nH]c(Cc3ccccc3)nc12	2.18	4.76	2.94	10.7	1.89	3.66	3.61	12.5	2.3	5.27	3.6	10.6	3.65	9.36	0.612	2.22	3.41	12.1	3.75	16.6
N#C/C(=C\c1ccccn1)c1nc2ccccc2o1	18.9	40.3	28.6	> 100	17	38.1	27.9	> 100	24.6	82.6	33.9	> 100	31.9	> 100	20	78.4	21.5	49.8	18.8	59.7
C=CC(=O)N1CCN(c2nc(OC[C@@H]3CCCN3C)nc3c(F)c(-c4nc(N)cc(C)c4C(F)(F)F)c(Cl)cc23)[C@@H](C)C1	2.04	5.39	2.47	8.92	1.6	3.02	1.74	3.27	1.91	7.63	–	1.34	9.68	21.7	1.77	4.54	1.96	5.05	1.92	5.01
O=NN(CC(=O)NNc1ccccc1)CC(=O)NNc1ccccc1	> 100	> 100	0.579	> 100	1.22	> 100	3.54	> 100	4.04	> 100	> 100	> 100	> 100	> 100	> 25.6	> 100	> 100	> 100	2.22	> 100
O=[N+]([O-])c1cc2c(ccc3ccccc32)o1	0.215	0.855	0.376	9.01	0.166	0.487	0.442	2.89	0.47	73.9	0.331	2.03	1.53	12.6	0.346	> 39.9	0.835	5.62	0.403	2.82
O=C1CC[C@@H]2[C@H]3CCC(=O)c4c3c(c3cccc(O)c3c4O)O[C@@]23C(=O)c2cccc(O)c2C(O)=C13	> 100	> 100	> 100	> 100	> 100	> 100	> 100	> 100	> 100	> 100	> 100	> 100	> 100	> 100	> 100	> 100	> 100	> 100	> 100	> 100
O=C1/C(=C/c2ccccc2)CN(C(=O)/C=C/c2ccccc2)C/C1=C\c1ccccc1	–	2.02	–	> 43.3	–	7.1	–	10.9	–	35.4	–	32.6	–	45.2	–	4.64	–	7.37	–	20.6
O=C1/C(=C/c2ccc([N+](=O)[O-])s2)Oc2ccc(Br)cc21	0.202	0.41	0.135	0.833	0.209	0.486	0.201	0.436	0.461	3.82	0.549	2.22	1.07	2.47	0.152	0.914	0.211	0.482	0.166	0.346
CC(=O)OC1CCC2(C)C(=CCC3C2CCC2(C)C3CC3OC4(CCC(C)CN4)C(C)C32)C1 (centres undefined)	–	> 100	–	> 100	–	> 100	–	> 100	–	> 100	–	> 100	–	> 100	–	> 100	–	> 100	–	> 100
COC(=O)c1cc2c3cc(Cl)ccc3[nH]c2c2ncccc12	> 100	> 100	> 100	> 100	> 100	> 100	> 100	> 100	> 100	> 100	> 100	> 100	> 100	> 100	> 100	> 100	> 100	> 100	> 100	> 100
